Measurements: patent US11866430B2, “Naphthyridinone compounds useful as T cell activators” (priority 2018, dated 2024)
Where two headings read alike, the source gives them in different places.

Tests used:
human DGKζ = human DGKζ (Homo sapiens (Human), UniProt Q13574); experiment: DGKζ LIPGLO assay (extruded liposome substrate); type: biochemical
Outline: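 Recombinant DGKζ (Sf9-expressed, Ni/SEC/SP-purified) preincubated 10 min with extruded 100 nm PC/DAG/PS liposomes in 50 mM MOPS pH 7.5, 100 mM NaCl, 10 mM MgCl2, 1 μM CaCl2, 1 mM DTT. Started with 300 uM ATP solution (stock, pre-addition); 1 hr reaction. ADP-Glo luminescence; IC50 from 11 concentrations.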

[1] = system: Jurkat AP1-luciferase Reporter; experiment: DGK AP1-Reporter Assay; type: cell-based
Outline: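 Jurkat cells carrying a lentiviral AP1-luciferase reporter received 30 nl compound per well for 20 min at 37 °C and 5% CO2. They were then stimulated for 6 h with anti-CD3 solution at 0.4 μg/mL; reference wells received 4 μg/mL and unstimulated wells medium only. Readout was Steady-Glo luciferase luminescence (RLU).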

[2] = DGKζ LIPGLO IC50, extruded liposome substrate
[3] = Homo sapiens, Jurkat, read-out: API-Luciferase Reporter IC50, Table 3
[4] = extruded liposome substrate, read-out: DGKζ LIPGLO IC50
[5] = Homo sapiens, Jurkat, read-out: DGKAP1 Lucif Reporter IC50, Table 4
[6] = read-out: DGKAP1 Lucif Reporter IC50, Table 4

Chain of human DGKζ (Q13574 other isoform, or with tags, fused parts or gaps): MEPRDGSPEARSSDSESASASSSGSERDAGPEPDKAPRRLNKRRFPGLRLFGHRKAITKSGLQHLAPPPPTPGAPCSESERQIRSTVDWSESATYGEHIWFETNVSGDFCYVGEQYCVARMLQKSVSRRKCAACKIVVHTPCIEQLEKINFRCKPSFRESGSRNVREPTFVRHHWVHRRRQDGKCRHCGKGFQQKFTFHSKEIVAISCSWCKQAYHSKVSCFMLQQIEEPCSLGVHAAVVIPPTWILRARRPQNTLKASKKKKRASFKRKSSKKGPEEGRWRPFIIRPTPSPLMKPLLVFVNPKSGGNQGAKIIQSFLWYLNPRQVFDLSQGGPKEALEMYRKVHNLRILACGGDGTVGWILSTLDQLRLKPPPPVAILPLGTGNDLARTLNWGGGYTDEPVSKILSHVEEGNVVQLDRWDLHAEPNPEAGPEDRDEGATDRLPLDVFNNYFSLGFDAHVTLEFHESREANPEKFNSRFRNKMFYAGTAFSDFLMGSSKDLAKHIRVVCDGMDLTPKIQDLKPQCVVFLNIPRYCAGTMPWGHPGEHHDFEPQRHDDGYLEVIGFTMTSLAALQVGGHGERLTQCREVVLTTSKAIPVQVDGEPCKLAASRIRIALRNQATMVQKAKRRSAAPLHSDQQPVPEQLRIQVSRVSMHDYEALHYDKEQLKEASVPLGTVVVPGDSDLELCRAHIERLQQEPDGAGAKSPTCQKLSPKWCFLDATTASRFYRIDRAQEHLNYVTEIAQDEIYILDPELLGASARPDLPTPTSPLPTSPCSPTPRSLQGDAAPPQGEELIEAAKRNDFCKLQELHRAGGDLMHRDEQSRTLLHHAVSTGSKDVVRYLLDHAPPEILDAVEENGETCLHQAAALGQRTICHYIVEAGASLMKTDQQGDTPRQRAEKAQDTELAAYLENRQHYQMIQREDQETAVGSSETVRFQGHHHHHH

Structure (SMILES)	IC50 (human DGKζ; [2]) [µM]	IC50 [1, 3] [µM]	IC50 (human DGKζ; [4]) [µM]	IC50 [1, 5] [µM]	IC50 [1, 6] [µM]
C#CCn1c(=O)c([N+](=O)[O-])c(N2CCN(C(C)c3ccc(F)cc3)CC2)c2nc(C#N)ccc21 (single isomer, unassigned) [Example 136, 8-(4-(1-(4-fluorophenyl)ethyl)piperazin-1-yl)-7-nitro-6-oxo-5-(prop-2-yn-1-yl)-5,6-dihydro-1,5-naphthyridine-2-carbonitrile]	0.21	0.23	–	–	–
Cn1c(=O)c(C#N)c(N2CCN(C(c3ccc(F)cc3)C3CCC3)CC2)c2nc(Cl)ccc21 (single isomer, unassigned) [Example 382, 6-chloro-4-{4-[cyclobutyl(4-fluorophenyl)methyl]piperazin-1-yl}-1-methyl-2-oxo-1,2-dihydro-1,5-naphthyridine-3-carbonitrile]	–	–	> 240	10	–
Cn1c(=O)c(C#N)c(N2CCN(C(c3ccc(F)cc3)C3CCC3)CC2)c2nc(Cl)ccc21 (single isomer, unassigned) [Example 383, 6-chloro-4-{4-[cyclobutyl(4-fluorophenyl)methyl]piperazin-1-yl}-1-methyl-2-oxo-1,2-dihydro-1,5-naphthyridine-3-carbonitrile]	–	–	> 2.4	–	10
Cc1ccc(CN2CCN(c3c(C#N)c(=O)n(C)c4ccc(Br)nc34)CC2)c(O)c1 [Example 372, 6-bromo-4-{4-[(2-hydroxy-4-methylphenyl)methyl]piperazin-1-yl}-1-methyl-2-oxo-1,2-dihydro-1,5-naphthyridine-3-carbonitrile]	–	0.14	8.8	–	–
Cc1cccc(CN2CCN(c3c(C#N)c(=O)n(C)c4ccc(Cl)nc34)CC2)c1O [Example 391, 6-chloro-4-{4-[(2-hydroxy-3-methylphenyl)methyl]piperazin-1-yl}-1-methyl-2-oxo-1,2-dihydro-1,5-naphthyridine-3-carbonitrile]	–	0.07	2.1	–	–
COc1cc(F)ccc1C(c1ccc(F)cc1)N1CCN(c2c([N+](=O)[O-])c(=O)n(C)c3ccc(C#N)nc23)CC1 (single isomer, unassigned) [Example 124, 8-(4-((4-fluoro-2-methoxyphenyl)(4-fluorophenyl)methyl)piperazin-1-yl)-5-methyl-7-nitro-6-oxo-5,6-dihydro-1,5-naphthyridine-2-carbonitrile]	0.16	0.1	–	0.57	–
Cn1c(=O)c(C#N)c(N2CCN(C(CC(C)(C)C)c3ccc(F)cc3)CC2)c2nc(Cl)ccc21 (single isomer, unassigned) [Example 378, 6-chloro-4-{4-[1-(4-fluorophenyl)-3,3-dimethylbutyl]piperazin-1-yl}-1-methyl-2-oxo-1,2-dihydro-1,5-naphthyridine-3-carbonitrile]	–	–	> 240	–	10
CC(c1ccc(F)cc1)N1CCN(c2c(C#N)c(=O)n(C)c3ccc(Cl)nc23)CC1 (single isomer, unassigned) [Example 388, 6-chloro-4-{4-[1-(4-fluorophenyl)ethyl]piperazin-1-yl}-1-methyl-2-oxo-1,2-dihydro-1,5-naphthyridine-3-carbonitrile]	–	–	130	–	3.33
Cn1c(=O)c(C#N)c(N2CCN(C(CC(C)(C)C)c3ccc(F)cc3)CC2)c2nc(Cl)ccc21 (single isomer, unassigned) [Example 377, 6-chloro-4-{4-[1-(4-fluorophenyl)-3,3-dimethylbutyl]piperazin-1-yl}-1-methyl-2-oxo-1,2-dihydro-1,5-naphthyridine-3-carbonitrile]	–	–	130	10	–
CC(C)C(c1ccc(F)cc1)N1CCN(c2c(C#N)c(=O)n(C)c3ccc(Cl)nc23)CC1 (single isomer, unassigned) [Example 315, 6-chloro-4-{4-[1-(4-fluorophenyl)-2-methylpropyl]piperazin-1-yl}-methyl-2-oxo-1,2-dihydro-1,5-naphthyridine-3-carbonitrile]	–	–	1.6	10	–
CC(c1ccc(F)cc1)N1CCN(c2c(C#N)c(=O)n(C)c3ccc(Cl)nc23)CC1 (single isomer, unassigned) [Example 387, 6-chloro-4-{4-[1-(4-fluorophenyl)ethyl]piperazin-1-yl}-1-methyl-2-oxo-1,2-dihydro-1,5-naphthyridine-3-carbonitrile]	–	–	1.6	3.33	–
Cn1c(=O)c(C#N)c(N2CCN(C(c3ccc(F)cc3)c3ccccc3O)CC2)c2nc(C#N)ccc21 (stereo not shown) [Example 11, 8-{4-[(4-fluorophenyl)(2-hydroxyphenyl)methyl]piperazin-1-yl}-5-methyl-6-oxo-5,6-dihydro-1,5-naphthyridine-2,7-dicarbonitrile]	1.8	0.08	–	–	–
